Measurements: the CheMixHub ionic liquid set
± gives the uncertainty stated by the source.

Test: xn = mol fraction of the nth substance listed

O=C(O)CCl + CCCC[N+](CCCC)(CCCC)CCCC.O=S(=O)([O-])O
100 kPa
Conditions | electrical conductivity, 303.15 K [S/m] | electrical conductivity, 308.15 K [S/m] | electrical conductivity, 313.15 K [S/m] | electrical conductivity, 333.15 K [S/m] | viscosity, 313.15 K [mPa·s] | viscosity, 333.15 K [mPa·s]
x2 = 0.333 | 0.027 ± 0.0011 | 0.0376 ± 0.0011 | – | – | – | –
x2 = 0.5 | – | – | 0.01 ± 0.001 | 0.0382 ± 0.001 | 1123 ± 61 | 294.2 ± 9.9

CNC(C)=O + CCCC[n+]1ccn(C)c1.F[B-](F)(F)F
101 kPa
Conditions | viscosity [mPa·s]
293.15 K, x2 = 0.0711 | 6.4 ± 0.39
293.15 K, x2 = 0.1409 | 7.42 ± 0.45
293.15 K, x2 = 0.4343 | 19.1 ± 1.2
293.15 K, x2 = 0.7774 | 65.8 ± 4
298.15 K, x2 = 0.0711 | 5.41 ± 0.33
298.15 K, x2 = 0.2042 | 7.19 ± 0.44
298.15 K, x2 = 0.4992 | 19.7 ± 1.2
298.15 K, x2 = 0.7774 | 51.7 ± 3.1
303.15 K, x2 = 0.1409 | 5.66 ± 0.34
308.15 K, x2 = 0 | 3.53 ± 0.21
308.15 K, x2 = 0.714 | 24.7 ± 1.5
313.15 K, x2 = 0.4992 | 9.8 ± 0.59
318.15 K, x2 = 0.0711 | 3.3 ± 0.2
318.15 K, x2 = 0.1409 | 3.74 ± 0.23

CN(C)CCO + CCCC[n+]1ccn(C)c1.F[P-](F)(F)(F)(F)F
101 kPa
Conditions | electrical conductivity [S/m] | viscosity [mPa·s]
288.15 K, x1 = 0.3182 | 0.1534 ± 0.0001 | 120 ± 48
288.15 K, x1 = 0.3764 | 0.1645 ± 0.0001 | –
288.15 K, x1 = 0.5166 | 0.1918 ± 0.0001 | 63 ± 25
288.15 K, x1 = 0.709 | 0.211 ± 0.001 | 29 ± 12
288.15 K, x1 = 0.8063 | 0.1998 ± 0.0001 | 18 ± 7.2
293.15 K, x1 = 0.2143 | 0.187 ± 0.001 | 117 ± 47
293.15 K, x1 = 0.4405 | – | 61 ± 24
293.15 K, x1 = 0.4637 | 0.237 ± 0.001 | –
293.15 K, x1 = 0.5166 | 0.25 ± 0.001 | 48 ± 19
293.15 K, x1 = 0.8063 | 0.245 ± 0.001 | 14.6 ± 5.8
298.15 K, x1 = 0.1221 | 0.211 ± 0.001 | 117 ± 47
298.15 K, x1 = 0.4637 | 0.308 ± 0.001 | –
298.15 K, x1 = 0.9128 | 0.1874 ± 0.0001 | 6.7 ± 2.7
298.15 K, x1 = 1 | – | 3.8 ± 1.5
303.15 K, x1 = 0.3764 | 0.369 ± 0.001 | –
303.15 K, x1 = 0.4405 | – | 36 ± 14
303.15 K, x1 = 0.8063 | 0.355 ± 0.001 | 9.7 ± 3.9
308.15 K, x1 = 0.4405 | – | 28 ± 11
308.15 K, x1 = 0.4637 | 0.483 ± 0.001 | –
313.15 K, x1 = 0.605 | 0.611 ± 0.001 | 14 ± 5.6
318.15 K, x1 = 0.3764 | 0.679 ± 0.001 | –
323.15 K, x1 = 0.3764 | 0.792 ± 0.001 | –
323.15 K, x1 = 0.5166 | 0.849 ± 0.001 | 12.7 ± 5.1
323.15 K, x1 = 1 | – | 2.04 ± 0.82

[I-].[Li+] + CCCC[n+]1ccn(C)c1.N#C[N-]C#N
electrical conductivity [S/m], 101 kPa
Conditions | x2 = 0.917 | x2 = 0.9294 | x2 = 0.9462 | x2 = 0.9628 | x2 = 0.9799
288.15 K | – | 0.389 ± 0.039 | 0.465 ± 0.047 | 0.506 ± 0.051 | 0.569 ± 0.057
298.15 K | 0.577 ± 0.058 | 0.643 ± 0.065 | 0.749 ± 0.075 | 0.809 ± 0.081 | 0.892 ± 0.09
333.15 K | 1.92 ± 0.19 | 2.04 ± 0.2 | 2.28 ± 0.23 | 2.33 ± 0.23 | 2.56 ± 0.26

COCCOC + CCCC[n+]1ccn(C)c1.O=S(=O)([N-]S(=O)(=O)C(F)(F)F)C(F)(F)F
Conditions | electrical conductivity [S/m]
294.5 K, 100 kPa, x2 = 0.02332 | 0.62 ± 0.06

CCOCCO + CCCC[n+]1ccn(C)c1.[Br-]
100 kPa, x2 = 0
Conditions | viscosity [mPa·s]
298.15 K | 1.81 ± 0.18
303.15 K | 1.61 ± 0.16
308.15 K | 1.45 ± 0.15
313.15 K | 1.33 ± 0.13

CCCC[n+]1ccn(C)c1.O=[N+]([O-])[O-] + CCCC[n+]1ccn(C)c1.[Cl-]
Conditions | viscosity [mPa·s]
293 K, 101 kPa, x2 = 0.2549 | 223 ± 14

CCCC[n+]1ccn(C)c1C.F[B-](F)(F)F + CCCCn1cc[n+](C)c1C.O=S(=O)([N-]S(=O)(=O)C(F)(F)F)C(F)(F)F
100 kPa
Conditions | electrical conductivity [S/m]
313.15 K, x2 = 0.5 | 0.313 ± 0.019
318.15 K, x2 = 0.3 | 0.332 ± 0.02
318.15 K, x2 = 0.5 | 0.388 ± 0.023
318.15 K, x2 = 0.8 | 0.493 ± 0.03
323.15 K, x2 = 0 | 0.202 ± 0.012
323.15 K, x2 = 0.2 | 0.398 ± 0.024
323.15 K, x2 = 0.3 | 0.415 ± 0.025
323.15 K, x2 = 0.4 | 0.445 ± 0.027
328.15 K, x2 = 0 | 0.26 ± 0.016
333.15 K, x2 = 0.6 | 0.687 ± 0.041
338.15 K, x2 = 0 | 0.447 ± 0.027
338.15 K, x2 = 0.3 | 0.734 ± 0.044
338.15 K, x2 = 0.4 | 0.774 ± 0.046
338.15 K, x2 = 0.6 | 0.806 ± 0.048
348.15 K, x2 = 0.4 | 1.04 ± 0.062
348.15 K, x2 = 0.8 | 1.23 ± 0.074
348.15 K, x2 = 0.9 | 1.4 ± 0.084
353.15 K, x2 = 0.8 | 1.32 ± 0.079
358.15 K, x2 = 0.1 | 1.33 ± 0.08
358.15 K, x2 = 0.5 | 1.39 ± 0.083
358.15 K, x2 = 0.7 | 1.42 ± 0.085
358.15 K, x2 = 0.8 | 1.49 ± 0.089
363.15 K, x2 = 0.5 | 1.56 ± 0.094

CC[n+]1ccn(CCOC)c1.N#C[S-] + CCCO
viscosity [mPa·s], 100 kPa
Conditions | x1 = 0.1001 | x1 = 0.2 | x1 = 0.3001 | x1 = 0.4001 | x1 = 0.5001 | x1 = 0.5719 | x1 = 0.701 | x1 = 0.7997 | x1 = 0.8987 | x1 = 1
288.15 K | 3.83 ± 0.21 | 5.71 ± 0.32 | 8.65 ± 0.49 | 14.3 ± 0.8 | 20 ± 1.1 | 28.2 ± 1.6 | 39.1 ± 2.2 | 55.7 ± 3.1 | 71.5 ± 4 | 93.1 ± 5.3
293.15 K | 3.38 ± 0.19 | 4.99 ± 0.28 | 7.53 ± 0.42 | 12.15 ± 0.68 | 16.78 ± 0.93 | 23.3 ± 1.3 | 31.8 ± 1.8 | 44.1 ± 2.4 | 56.7 ± 3.1 | 70.8 ± 3.9
298.15 K | 2.99 ± 0.17 | 4.4 ± 0.24 | 6.62 ± 0.37 | 10.43 ± 0.58 | 13.84 ± 0.77 | 19.7 ± 1.1 | 26.2 ± 1.4 | 35.7 ± 2 | 45.6 ± 2.5 | 55.8 ± 3
303.15 K | 2.66 ± 0.15 | 3.94 ± 0.22 | 5.88 ± 0.33 | 9.06 ± 0.5 | 11.68 ± 0.65 | 16.75 ± 0.92 | 21.9 ± 1.2 | 29.3 ± 1.6 | 37.4 ± 2.1 | 44.3 ± 2.4
308.15 K | 2.39 ± 0.13 | 3.52 ± 0.2 | 5.25 ± 0.29 | 7.95 ± 0.44 | 10.04 ± 0.56 | 13.92 ± 0.77 | 19.2 ± 1.1 | 24.4 ± 1.4 | 31.1 ± 1.7 | 36 ± 2
313.15 K | 2.15 ± 0.12 | 3.16 ± 0.18 | 4.72 ± 0.26 | 7.03 ± 0.39 | 8.8 ± 0.49 | 11.81 ± 0.65 | 16.05 ± 0.88 | 20.6 ± 1.1 | 26 ± 1.4 | 29.7 ± 1.6
318.15 K | 1.94 ± 0.11 | 2.84 ± 0.16 | 4.24 ± 0.24 | 6.22 ± 0.34 | 7.8 ± 0.43 | 10.16 ± 0.56 | 13.47 ± 0.74 | 17.99 ± 0.99 | 22 ± 1.2 | 24.9 ± 1.4
